The source made the active and inactive calls.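 Rule for the calls: active = compounds raising the signal whose fitted half-maximal concentration is at or below their top tested dose (cut at about 25 µM in these data); inconclusive = flat fit at 30 to 70% activity, or a poor fit; inactive = the rest.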
Tested on: INS-1E rat beta cells, no cytokines, CellTiter-Glo ATP, 48 h
Assay: ATP level change in INS-1E without cytokines, dose response, counter-screen for beta-cell apoptosis protection project, INS-1E rat cells, ATP luminescence, cherry pick (AID 463229)

SMILES | AC50
CCC(CO)Oc1cc(NCc2ccc(C(C)(C)C)cc2)c2ncn(C(C)C)c2c1 (stereo not given) | 2.45 µM
CC(C)C[C@H]1CN=C(Nc2ccccc2)N1CC1CCC(C(C)(C)C)CC1 (stereo not given in full) | 8.6 µM
Cc1ccnc(NC(=O)c2ccc([N+](=O)[O-])s2)c1 | 8.41 µM
O=C(NCc1cccnc1)c1ccc([N+](=O)[O-])cc1 | 5.86 µM
CN(C)c1nc(N/N=C/c2ccccc2O)nc(Nc2ccc(F)cc2)n1 | 11.3 µM
Cc1cc(C)c2sc(NNC(=O)c3ccc(S(=O)(=O)N4CCc5ccccc5C4)cc3)nc2c1 | 3.38 µM
COc1cc(NC(C)CCCN)c2ncccc2c1 (stereo not given) | 13.8 µM
COc1cnc(-c2ccccn2)nc1Oc1ccc(C(C)(C)C)cc1 | 13.7 µM
CCN(CC)S(=O)(=O)c1cc(OC)ccc1N=Nc1ccc(O)c2ncccc12 | 4.04 µM
CS(=O)(=O)c1ncc(Cl)c(C(=O)Nc2ccc(OC(F)F)cc2)n1 | 11.6 µM
O=C(Nc1ccc(Cl)c(Cl)c1)N1CCSC1c1ccco1 (stereo not given) | 14.2 µM
Cc1[nH]c2ccccc2c1CN1CCN(c2ccccn2)CC1 | 5.1 µM
CCCNC(=O)c1ccc2c(=O)c(O)c(-c3ccc(C)cc3)[nH]c2c1 | 8.71 µM
N#Cc1c(N2CCCCC2)nc(N2CCCCC2)c2c1CCN(Cc1ccccc1)C2 | 13.8 µM
Fc1cc(F)c2nc(Nc3nc4c(F)cccc4s3)sc2c1 | 4.95 µM
COc1ccc(-c2sc3ccccc3c2-c2ccc(OCCN(C)C)cc2)cc1 | 7.12 µM
CCn1cc(/C=C/c2cc[n+](C)cc2)c2ccccc21 | 4.44 µM
COc1ccc(Cn2c(SCc3ccccc3C)nc3cc(OC)c(OC)cc3c2=N)cc1 | 7.93 µM
CC(=O)c1cccc(NS(=O)(=O)c2ccc(N/C=C/C(=O)c3ccc(F)cc3)cc2)c1 | 5.02 µM
O=C(NCCc1cn2ccccc2n1)c1cc(COc2ccc3ncccc3c2)on1 | 8.04 µM
O=C(Nc1nc(NC(=O)c2ccco2)n(-c2ccccc2)n1)c1ccccc1 | 6.83 µM
Cc1c(Cl)c([N+](=O)[O-])nn1Cc1ccc(C(=O)N/N=C\c2cc(Cl)ccc2O)o1 | 6.95 µM

SMILES | AC50
O=C(Nc1cccc(C(F)(F)F)c1)Oc1ccc(Cl)c2cccnc12 | 7.64 µM
Cc1nc2ccccn2c1C(=O)/C=C/c1cccc([N+](=O)[O-])c1 | 7.93 µM
Cc1ccc(-c2nc(C(Cl)Cl)c3ccccc3n2)cc1 | 3.51 µM
O=C(Nc1nc(-c2ccccc2)cs1)c1ccccc1NS(=O)(=O)c1ccc(F)cc1 | 4.56 µM
C/C(=N/NC(=O)c1cccs1)c1c(C)[nH]n(-c2nc3ccccc3s2)c1=O | 16.2 µM
Cc1ccc(-c2nc(NC(=O)c3nn(C)cc3[N+](=O)[O-])sc2C)cc1 | 5.47 µM
Oc1c(C(Nc2cccc(C(F)(F)F)c2)c2ccncc2)ccc2cccnc12 (stereo not given) | 6.84 µM
O=[N+]([O-])c1c(Nc2ccc(O)cc2)cc(Cl)c2nonc12 | 8.76 µM
C=CCCc1ccc(C#N)c(SCc2c(C(=O)OCC)c3cc(OC(C)=O)c(Br)cc3n2C)n1 | 1.07 µM
CCCCCCCCCC[N+](C)(C)CC/C=C1/c2ccccc2Sc2ccc(Cl)cc21 | 7.99 µM
CCc1cc(CNC(=O)c2ccc3nc(Cc4ccc(OC)c(OC)c4)oc3c2)on1 | 9.39 µM
COc1cccc(/C=N/Nc2nc3ccccc3[nH]2)c1O | 8.89 µM
CC(C)c1ccc(COc2ccc(C(=O)N3CCOCC3)cc2)cc1 | 12.9 µM
CCOc1cc(/C=N/Nc2cc(C)nc(-n3nc(C)cc3C)n2)ccc1O | 5.78 µM
Cc1nn(S(=O)(=O)c2ccc(Cl)cc2)c(C)c1Sc1ccc([N+](=O)[O-])cc1 | 7.69 µM
Cc1ccc(C2=CC(c3ccc(N(C)C)cc3)n3nnnc3N2)cc1 (stereo not given) | 6.72 µM
CCCc1sc(N/N=C/c2ccccn2)nc1-c1ccc(F)cc1 | 2.27 µM
COc1cc(CN2CCN(c3cc(C)ccc3C)CC2)ccc1O | 7.21 µM
O=C(COC(=O)c1cn(-c2ccccc2)nc1-c1ccccc1)c1cccc([N+](=O)[O-])c1 | 2.8 µM
Cc1cc(Cl)c(S(=O)(=O)N2CCN(c3ccc(F)cc3)CC2)cc1OCC(=O)NC1CCCCC1 | 7.07 µM
Cc1cc(N2CCN(C)CC2)ccc1NC(=O)c1c2c(nc3ccccc13)CCN(Cc1ccccc1)C2 | 8 µM
Cc1ccc2nc(-c3cccc(-c4cccc(Cl)c4)c3)c(NCc3ccccc3)n2c1 | 7.11 µM

SMILES | AC50
CC1(C)CC(=O)C2=C(C1)OC1=C(C(=O)CC(C)(C)C1)C2c1ccc(O)cc1O | 7.31 µM
NNc1ncnc2scc(-c3ccc(Cl)cc3)c12 | 14.5 µM
COc1ccc(C(=O)C/C(=C\C(=O)c2ccc(C)cc2)c2ccccc2)cc1 | 7.67 µM
CN(C)C1=NC[C@H](Cc2ccccc2)N1CCCC1CCCCC1 | 13.6 µM
Cc1nc(NCCc2ccc(S(N)(=O)=O)cc2)c2c(C)c(C)sc2n1 | 6.2 µM
O=C(Nc1nc(-c2ccccn2)cs1)Nc1ccc(F)cc1F | 10.2 µM
CCOC(=O)c1sc(NC(=O)c2c(C)nn(Cc3ccccc3)c2C)cc1C | > 26 µM (inactive)
O=C(Nc1ccc(-c2nc3ccccc3o2)cc1)c1ccc(N2CCOCC2)c([N+](=O)[O-])c1 | 5.65 µM
COc1ccc(N(C(=O)CCl)C(C(=O)NCCc2ccccc2)c2cccs2)cc1Cl (stereo not given) | 7.56 µM
Cc1[nH]nc2nc(SCC(=O)NCCC3=CCCCC3)n(-c3ccc(Br)cc3)c(=N)c12 | 6.36 µM
CN1/C(=C\C(=S)NC(=O)c2cccc(Br)c2)C(C)(C)c2ccccc21 | 3.93 µM
OCCCNc1c2ccccc2nc2ccccc12 | 9.09 µM
Cc1ccccc1/C=C/C(=O)c1ccc([N+](=O)[O-])o1 | 5.07 µM
CCC(=O)NC(c1cc(Cl)c2cccnc2c1O)C(C)C (stereo not given) | 7.3 µM
CC(Nc1ncnc2ccccc12)c1ccccc1 (stereo not given) | 3.58 µM
CCn1c(-c2ccc(C)cc2)nn(CC(=O)NCCc2ccccc2)c1=S | 7.22 µM
CC1=NOC(=O)/C1=C/c1ccc(-c2ccc(Cl)cc2)o1 | 7 µM
CCc1c(C)nc2ncnn2c1NCCc1ccc(OC)cc1 | 6.85 µM
N=c1c2c(-c3ccccc3)c(-c3ccccc3)n(Cc3ccco3)c2ncn1Cc1ccccc1 | 7.01 µM
Cc1ccc(-c2[nH]ncc2/C=N/n2c(COc3ccccc3C)nc3ccccc3c2=O)cc1 | 8.38 µM
O=C(CCC1CCCC1)Nc1ccc(C(=O)NCc2cccnc2)cc1 | < 0.195 µM
COc1ccc(Cn2c(SCc3ccc(C)cc3)nc3cc(OC)c(OC)cc3c2=N)cc1Cl | 6.89 µM

SMILES | AC50
N#CC(C#N)=C(Nc1ccc(F)cc1)SCc1cccc(F)c1 | 5.08 µM
O=C1C=C(N2CCCCC2)c2ccccc2C1=O | 10.6 µM
O=C(Nc1ccc(N2CCN(Cc3ccccc3Cl)CC2)cc1)c1cccnc1 | 5.98 µM
O=C(Nc1ccc(OC(F)(F)F)cc1)Nc1cccc([N+](=O)[O-])c1 | 3.8 µM
Oc1ccc(/C=N/Nc2ncc(Br)cn2)c(O)c1 | 3.83 µM
Cc1onc(-c2ccccc2)c1C(=O)NC(=S)NNC(=O)c1ccccc1O | 18.4 µM
COc1ccc(C(=O)/C(=C\c2ccco2)N2C=CC=CC2=C(C#N)C#N)cc1 | 7.26 µM
CCOC(=O)C1=C(c2ccc(OC)cc2)C(=O)c2ccccc2C1=O | 3.83 µM
Cc1cc([N+](=O)[O-])nn1Cc1ccc(C(=O)N/N=C/c2ccc(O)cc2O)cc1 | 6.27 µM
N#Cc1ccc(-c2ccc(Cl)cc2)nc1SCC(=O)c1cccc(Cl)c1 | 6 µM
COc1cc(OC)nc(-n2ncc(Br)c(Br)c2=O)n1 | 6.66 µM
O=C(NCCc1ccccc1)[C@@H]1CC=C[C@@H]2CCN(Cc3ccc(Cl)c(Cl)c3)C(=O)[C@@H]21 | 13.2 µM
Cc1ccc2nc(NC(=O)/C=C/c3ccc4c(c3)OCO4)sc2c1 | 7.35 µM
Cc1cc(O)c2c(c1)C(=O)C13C(=C2O)C(=O)[C@H]2[C@@H](O)[C@@H]1[C@H]1[C@H](O)[C@@H]3C(=O)C3=C(O)c4c(O)cc(C)cc4C(=O)C312 (stereo not given in full) | 4.68 µM
Cc1cccc2c(C(=O)N3CCN(c4ccccn4)CC3)cc(-c3cccc(Br)c3)nc12 | 3.08 µM
C/C(=N\NC(=O)c1ccc(Cl)c(Cl)c1)c1ccccn1 | 0.98 µM
Cc1ccc([N+](=O)[O-])c(OCCN2CCCCCC2)c1 | 7.14 µM
N#CC(C#N)=C1C=CC=CN1/C(=C\c1ccco1)C(=O)c1ccccc1 | 13 µM
Cc1cc(C(C)(C)C)cc(C)c1C[n+]1ccc2ccccc2c1 | 1.74 µM
O=C(Nc1ccc(Cc2ccncc2)cc1)c1ccc([N+](=O)[O-])o1 | 10.1 µM
O=C(Nc1nc(-c2ccccn2)cs1)c1ccc(Cl)s1 | 4.38 µM
CCc1cc[n+](C2=C([O-])c3ccccc3C(=O)/C2=N\S(=O)(=O)c2cccs2)cc1 | 9.35 µM

SMILES | AC50
O=C(Nc1nc(-c2ccccn2)cs1)c1ccc(Br)s1 | 6.75 µM
COc1ccc(CNc2ncnc3sccc23)cc1 | 11.3 µM
O=C(NNC(=O)C12CC3CC(CC(C3)C1)C2)c1ccccn1 | 12.7 µM
COc1ccc(O)c(C(=O)c2cnc3nc4ccccc4n3c2)c1 | 6.33 µM
COc1ccc2c(c1)N(C)/C(=C/c1cccc[n+]1C)S2 | 1.49 µM
O=S(=O)(c1cccs1)N1CCN(CC(O)COc2cc(Cl)ccc2Cl)CC1 (stereo not given) | 13.3 µM
O=C(Oc1c(CN2CCOCC2)cc(Cl)c2cccnc12)c1ccccc1 | 17.1 µM
CCCCOCCCNc1ncnc2c1[nH]c1ccccc12 | 2.24 µM
COC1=C(Nc2ccccc2OC)C(=O)c2ccccc2C1=O | > 26 µM (inactive)
Cc1ccc2[nH]c(=O)c(C3C(C#N)=C(N)Oc4c3ccc3cccnc43)cc2c1 (stereo not given) | 4.74 µM
c1ccc(-c2nc(NCc3ccco3)c3ccccc3n2)nc1 | 8.46 µM
Cc1ccc(C(=O)c2c(C)oc3c2C(=O)C(=O)c2ccccc2-3)cc1 | 2.92 µM
O=C(N/N=C\c1cc(Cl)ccc1O)c1ccc(S(=O)(=O)N2CCCCC2)cc1 | 6.44 µM
C/C(=N\NC(=O)c1cc(-c2cccs2)nc2ccccc12)c1ccccn1 | 1.92 µM
C/C(=N\NC(=O)c1cc2ccccc2cc1O)c1ccccn1 | 2.66 µM
CCN(CC)c1ccc(/C=N/NC(=O)c2ccco2)c(O)c1 | 2.11 µM
COc1ccc2cc1Oc1ccc(cc1)C[C@H]1c3cc(c(OC)cc3CCN1C)Oc1c(O)c(OC)cc3c1[C@H](C2)N(C)CC3 | 7.07 µM
COc1cc2nc(N3CCN(c4cc(C)ccc4C)CC3)nc(N)c2cc1OC | 6.91 µM
Cc1ccc(C)c(S(=O)(=O)Nc2ccc(O)c3ccccc23)c1 | 14.1 µM
O=C(CNc1ccc(F)cc1)N/N=C/c1c(O)ccc2ccccc12 | 19.5 µM
CCOc1ccc(-n2c(-c3ccc(Br)cc3)c[n+]3c2CCCCC3)cc1 | 1 µM
CCCCCCC[N+](CC)(CC)CCCCc1ccc(Cl)cc1 | 4.93 µM

— PubChem BioAssay AID463229 (Broad Institute, 2010)
